Reference: patent publication US20180296561A1, “The Methods For Treatment Of Tumors” (The University of North Carolina at Chapel Hill, priority 2015, published 2018)

Key:
[1] = tested on: monocytes and macrophages that expressed MerTK; conditions: addition of UNC569; cited from earlier work
melanoma cells = conditions: cited from earlier work
[2] = tested on: non-small cell lung cancer (NSCLC) and acute myeloid leukemia (AML) tumor cell lines; conditions: cited from earlier work
melanoma = melanoma mouse model, therapeutic doses; cited from earlier work
Colon26 tumor cells = experiment: Colon26 syngeneic colon carcinoma model: tumor volume, time to endpoint, survival; format: in vivo, Female BALB/c mice; conditions: for median time to endpoint (TTE): endpoint 1000 mm^3 or 45 days; for tumor growth delay (TGD) / tumor growth delay (TGD), percent / mice remaining through day 15: alone or with the antibody in the label; for mice remaining through day 15: n=9
Method: Female BALB/c mice were injected with 5×10^5 Colon26 tumor cells in 0% Matrigel sc in flank. The cell injection volume was 0.1 mL/mouse. Mice were between 7 to 10 weeks at the start of the experiment. When tumors reached an average size of 80-120 mm^3, treatment was begun. Body weight was measured five times per week for the first two weeks and then twice per week to the end of the experiment. Tumor volume was measured by caliper measurement twice per week to the end of the experiment. […] Any group with a mean body weight loss of greater than 20% or greater than 10% mortality was stopped dosing. The group was not euthanized and recovery was allowed. Within a group with greater than 20% weight loss, individuals hitting the individual body weight loss endpoint were euthanized. The endpoint of the experiment was a tumor volume of 1000 mm^3 or 45 days, whichever endpoint came first. When the endpoint was reached, the mice were euthanized.
UNC2371 was prepared in salt form and the dosing solution was prepared every day. UNC2371 was prepared in deionized water. All doses represent total substance dosed by weight of compound (including salt weight). […] Dosing solution was prepared at 5 mL/kg (0.100 mL/20 g mouse) and volume was adjusted accordingly for body weight. Dosing solutions of anti-CTLA4 9H10 (BioXcell cat# BE0131) and anti-PD1 RMP1-14 (rat Ig—BioXcell cat# BE0146) were prepared in PBS every week, stored at 4° C., and protected from light. Dosing solution was prepared at 10 mL/kg (0.200 mL/20 g mouse) and volume was adjusted accordingly for body weight.
Mice were randomized into twelve different experimental groups. Group 1 received deionized water via oral gavage (p.o.) three times daily for twenty-one days, starting with two doses on Day 1 (tid×21 first day two doses) and PBS i.p. twice weekly for two weeks (biwk×2). Groups 2-4 received UNC2371 via oral gavage (p.o.) three times daily for twenty-one days, starting with two doses on Day 1 (tid×21 first day two doses). Dosing amounts for UNC2371 for Groups 2-4 were 1, 5 and 15 mg/kg, respectively. Group 5 received anti-PD1 mAb at a dosage of 5 mg/kg i.p. biwk×2. Group 6 received anti-CTLA4 mAb at a dosage of 5 mg/kg on Day 1 and at 2.5 mg/kg on Days 4 and 7. Groups 7-9 received UNC2371 (p.o. tid×21, first day two doses) at 1, 5 and 15 mg/kg, respectively, in combination with anti-PD1 (5 mg/kg i.p. biwk×2). Groups 10-12 received UNC2371 (p.o. tid×21, first day two doses) at 1, 5 and 15 mg/kg, respectively, in combination with anti-CTLA4 (5 mg/kg on Day 1 and at 2.5 mg/kg on Days 4 and 7).

[3] = tested on: Colon26 murine colon carcinoma; experiment: Flow cytometry of immune cells in tumor and PBMCs, Colon26 model, Day 8; format: in vivo, mouse
Method: Tumor samples and blood samples were analyzed by flow cytometry to determine the effect of a MerTK inhibitor on immune cells alone or in combination with an immune checkpoint inhibitor in the Colon26 murine colon carcinoma mouse model. In the following example, the MerTK inhibitor UNC2371 was examined in combination with the immune checkpoint inhibitors anti-CTLA4 and anti-PD1. Experiments were performed as described in Example 3 above, except that mice in each group were euthanized at Day 8, and tumor tissue and blood samples were collected. Blood samples were collected by terminal cardiac puncture under isoflurane anesthesia. Blood was processed for peripheral blood monocyte cells (PBMCs; enriches the white cell population). Flow cytometry was conducted to identify specific white cell populations in both the PBMCs as well as the tumor cells. Tumor samples were preserved (single cell suspension) and maintained at −4° C.

[4] = tested on: myeloid-derived suppressor cells (MDSCs); experiment: mRNA expression in myeloid-derived suppressor cells from B16/F10 tumor-bearing mice; format: in vivo, mouse
Method: To evaluate the effect of MerTK inhibitors on myeloid-derived suppressor cells (MDSCs), C57BL/6 B16/F10 melanoma cells were implanted into syngeneic mice and tumors are allowed to form. Once tumors reached 5 mm in diameter, mice received either vehicle (0.9% NaCl) or 10, 25 or 50 mg/kg UNC2371 for 5 days. Initial experiments determined the lowest dose capable of altering the immune system. Myeloid-derived suppressor cells (MDSCs) were isolated from the spleens of tumor-bearing mice by fluorescence activated cell sorting using the cell surface markers CD11b^+Ly6G^−Ly6C^high and G-MDSCs by CD11b^+Ly6G^highLy6C^low. MDSCs' suppressive capabilities were assessed by the level of RNA for M2 capabilities.

[5] = tested on: Colon26 murine colon carcinoma; experiment: Immunohistochemistry of Colon26 tumors (CD3, F4/80, survivin); format: in vivo, mouse
Method: Tumors from 2 to 3 mice per treatment group were formalin fixed and paraffin embedded. The samples were analyzed by immunohistochemistry for several biological markers (data not shown). T cells (cell marker=CD3) were increased in the 1 mg/kg UNC2371 (low dose) monotherapy arm and 1 mg/kg UNC2371/anti-CTLA4 combination treatment arm compared to vehicle. […] Macrophages (cell marker F4/80) were highest in group 6 (anti-CTLA4) and group 10 (UNC2371 1 mg/kg+anti-CTLA4) with similar staining seen in these two groups. […] Tumors were also analyzed for survivin staining.

B16 melanoma = B16 melanoma mouse model with radiation therapy (XRT), secondary tumor; format: in vivo
Method: MerTK ihibitors were analyzed in combination with immune checkpoint inhibitors in a B16 melanoma mouse model for their effect on secondary tumor growth in mice treated with radiation therapy (XRT). XRT is performed according to the following schematic:
Briefly, XRT (8 Gy) was given on days 9, 10, and 11. UNC2371 was given at a dose of 50 mg/kg, by oral gavage, qd, initiated at Day 8. Anti-PD1 was given at 200 μg IP on days 6, 9, and 12. Eight mice were analyzed in each treatment arm (XRT, MerTKi, anti-PD1, anti-PD1+MerTKi, XRT+MerTKi, XRT+anti-PD1, and XRT+anti-PD1+MerTKi). Tumors were implanted on both flanks, and the secondary tumor was shielded during XRT treatment. The secondary tumor was assessed for impact of abscopal effect.

AML = conditions: cited from earlier work

For `CCCCNc1ncc2c(-c3ccc(F)cc3)nn(CC3CCC(N)CC3)c2n1` (stereo not drawn) [UNC569], the “production of inflammatory cytokines” value [1] is listed as “restored”.

In the case of `CCCCNc1ncc2c(-c3ccc(S(=O)(=O)N4CCOCC4)cc3)nn(C3CCC(O)CC3)c2n1` (stereo not drawn) [UNC1062], the “activation of MERTK-mediated downstream signaling” value (melanoma cells) is listed as “reduced”, the apoptosis in culture (melanoma cells) is listed as “induced” and the “colony formation in soft agar” value (melanoma cells) is listed as “reduced”. The “invasion of melanoma cells” value (melanoma cells) was “inhibited”.

For `CCCCNc1ncc2c(-c3ccc(CN4CCN(C)CC4)cc3)cn(C3CCC(O)CC3)c2n1` (stereo not drawn) [UNC2025A], the colony formation [2] is listed as “can inhibit colony formation” and the survival (melanoma) is listed as “survival advantage”.

In the case of `CN1CCN(Cc2ccc(-c3cn(C4CCC(O)CC4)c4nc(NCCC5CC5)ncc34)cc2)CC1` (stereo not drawn) [UNC2371], the single agent efficacy (Colon26 tumor cells; anti-CTLA4, anti-PD1 and low dose UNC2371 as single agents, FIGS. 16 to 18) was “failed to demonstrate single agent efficacy”, the “median time to endpoint (TTE)” value (Colon26 tumor cells; high dose UNC2371 15 mg/kg TID p.o. x21, alone or with the antibody in the label) was 20.7 days and the “tumor growth delay (TGD)” value (Colon26 tumor cells; high dose UNC2371 15 mg/kg TID) was 6.9 days. The “tumor growth delay (TGD), percent” value (Colon26 tumor cells; high dose UNC2371 15 mg/kg TID) was 50%, the “mice remaining through day 15” value (Colon26 tumor cells; high dose UNC2371 15 mg/kg TID) was 8/9 and the “median time to endpoint (TTE)” value (Colon26 tumor cells; low dose UNC2371 1 mg/kg TID p.o. x21, alone or with the antibody in the label) was 14.0 days. The “tumor growth delay (TGD)” value (Colon26 tumor cells; low dose UNC2371 1 mg/kg TID) was 0.2 days, the “tumor growth delay (TGD), percent” value (Colon26 tumor cells; low dose UNC2371 1 mg/kg TID) was 1% and the “mice remaining through day 15” value (Colon26 tumor cells; low dose UNC2371 1 mg/kg TID) was 3/9. The “median time to endpoint (TTE)” value (Colon26 tumor cells; mid dose UNC2371 5 mg/kg TID p.o. x21, alone or with the antibody in the label) was 16.7 days, the “tumor growth delay (TGD)” value (Colon26 tumor cells; mid dose UNC2371 5 mg/kg TID) was 2.9 days and the “tumor growth delay (TGD), percent” value (Colon26 tumor cells; mid dose UNC2371 5 mg/kg TID) was 21%. The “mice remaining through day 15” value (Colon26 tumor cells; mid dose UNC2371 5 mg/kg TID) was 6/9, the “CD8+ cells in the tumor” value ([3]; Day 8, FIG. 19, combination: low dose or medium dose UNC2371) was “increase” and the “Natural Killer (NK) cells in the tumor” value ([3]; Day 8, FIG. 20) was “increase”. For the same molecule, the “arginase mRNA expression” value ([4]; 25 mg/kg UNC2371 for 5 days vs vehicle control) was “decrease”, the “iNOS (inducible nitric oxide synthase) mRNA expression” value ([4]; 10, 25, or 50 mg/kg UNC2371 for 5 days vs vehicle control) was “decrease” and the “IDO (indoleamine 2,3-dioxygenase) mRNA expression” value ([4]; 10 or 25 mg/kg UNC2371 for 5 days vs vehicle control) was “decrease”. For the same molecule, the “T cell (CD3 marker) penetration into the core of the tumor” value [5] was “notable increase”, the “T cells (cell marker CD3) in tumor compared to vehicle” value ([5]; 1 mg/kg UNC2371 (low dose)) was “increased” and the survivin staining ([5]; low dose 1 mg/kg UNC2371) was “markedly decreased staining”. The “secondary tumor volume compared with XRT alone” value (B16 melanoma; UNC2371 50 mg/kg oral gavage qd from Day 8, anti-PD1 200 μg IP days 6, 9, 12, FIG. 22A) was “more effective than XRT alone”, the “tumor derived myeloid-derived suppressor cells (MDSCs)” value (B16 melanoma; XRT+UNC2371 vs XRT, FIG. 22C) was “decrease” and the “abscopal effect on the secondary tumor” value (B16 melanoma; with XRT 8 Gy days 9, 10, 11, UNC2371 50 mg/kg qd, anti-PD1 200 μg IP, FIG. 22B) was “enhanced the abscopal effect”.

In the case of `CCCCNc1ncc2c(-c3ccc(S(=O)(=O)N4CCOCC4)cc3)cn(C3CCC(O)CC3)c2n1` (stereo not drawn) [UNC 1666], the “myeloid survival in AML” value (AML) is listed as “decreases” and the “oncogenic signaling in AML” value (AML) is listed as “decreases”.
